Read-outs that look alike come from different tables or passages of the source.
Test system: Pyricularia oryzae
Format: in vivo
Conditions: individual active compound, rice seedlings Tai-Nong 67, protective spray, evaluated 6 days after inoculation

Compound | Efficacy in % of the untreated control (1 ppm in the spray liquor) [%] | Efficacy in % of the untreated control (4 ppm in the spray liquor) [%]
C[C@H](Nc1c(-c2c(F)cc(F)cc2F)c(Cl)nc2ncnn12)C(F)(F)F [comparative compound B] | 4 | 40
CC1CCN(c2c(-c3c(F)cccc3Cl)c(Cl)nc3ncnn23)CC1 [comparative compound A] | 0 | 4
CC1CCN(c2c(-c3c(F)cc(F)cc3F)c(Cl)nc3ncnn23)CC1 [I, 5-chloro-7-(4-methylpiperidin-1-yl)-6-(2,4,6-trifluorophenyl)-[1,2,4]triazolo[1,5-a]pyrimidine] | 16 | 28
COCC(=O)N(c1c(C)cccc1C)[C@H](C)C(=O)OC [II (metalaxyl-M), methyl N-(methoxyacetyl)-N-(2,6-xylyl)-D-alaninate] | – | 0

From patent US20070015770A1 (priority 2003, published 2007)
